Reference: patent publication US11801210B2, “Retinol replacement in skin treatment” (SYMRISE AG, priority 2018, dated 2023)

Experiments:
[1] = Cytotoxicity assay (TOX8 kit); format: cell-based, mouse; details: mouse, 3T3 swiss albino mouse fibroblasts; 3T3 fibroblasts, 48 h treatment; concentration in medium lethal for 20% of living cells (80% viability)
Procedure: (§1) The TOX8 (Sigma Aldrich) Kit was used to determine cytotoxicity retinoic acid, 3,3-dimethyl-2-oxobutyl ester (MDI 101) on 3T3 swiss albino mouse fibroblasts. The 3T3 were cultivated in DMEM medium (Capricorn) including 10% FBS, 1% Penicillin/Streptomycin and 100 nM sodium selenite at 37° C. and 5% CO2. For the cytotoxicity experiment, 3T3 were seeded into 96-well microtiter plate. After 24 hours incubation and a confluence of 30 to 40% the cells were treated with MDI 101 in four different concentrations for 48 h. Test substance was pre-diluted in DMSO, further dilutions were performed in equal medium with 5% FBS. After 48 h a microscopic estimation was carried out and the cells were incubated with TOX8-Kit for two hours at 37° C. and 5% CO2. The absorbance of a converted dye was measured by spectrophotometry at a wavelength of 600 nm. Bioreduction of the dye reduces the amount of its oxidized form (blue) and concomitantly increases the fluorescent intermediate (red), wherein the mechanism and applicability of the test is independent of the cell type. Cell viability was analyzed relative to the solvent-control. The inhibitory concentrations for 50% viability (IC50) and 80% (IC20) were calculated.
(§2) The specific concentration of MDI 101 in the cell culture medium, which is lethal for 20% (IC20) and for 50% (IC50) of living cells was determined: […]

[2] = tested on: 3T3 swiss albino mouse fibroblasts; assay: Cytotoxicity assay (TOX8 kit); format: cell-based; details: Mus musculus, Fibroblast; 3T3 fibroblasts, 48 h treatment; concentration in medium lethal for 50% of living cells
Procedure: as §1, §2

[3] = ABTS+ assay, anti-oxidative capacity; format: biochemical; details: 10 min at 30° C., 734 nm
Procedure: For the determination of the anti-oxidative capacity, the ABTS+-Assay was performed. The assay principle bases on the reduction and the involved decolourization of the green coloured cationic radical 2,2′-Azinobis(3-ethylbenzothiazoline 6-sulfonic acid) (ABTS+) by antioxidants. The decolourization can be measured spectrophotometrically at 734 nm.
The determination of the anti-oxidative capacity is performed in 96-well microplates from Nunc (Wiesbaden, Germany) and with the microplate reader “Spark” from Tecan (Crailsheim, Germany).
Samples were incubated for 10 min at 30° C. with the 2,2′-Azinobis-(3-ethylbenzothiazoline-6-sulfonate (ABTS+) radical cation (Sigma, St. Louis, USA) prepared by reaction of ABTS+ with potassium persulfate. As a positive control Trolox is always co-tested. The degree of decolourization was determined spectrophotometrically at 734 nm by […]. Results are mean values from 2 independent experiments with quadruple determinations each.
The antioxidative capacity is expressed in IC50 values (concentration that scavenges 50% of the cationic radical relative to the untreated ABTS+ solution), which can be determined by a trend calculation.

[4] = tested on: intracellular radicals (reactive oxygen species, ROS) in cells; assay: Dichlorofluorescein (DCF) assay, oxidative stress; format: cell-based; details: for ROS mean value / ROS reduction: 24 h incubation, relative to control
Procedure: For the quantification of intracellular radicals, the dichlorofluorescein (DCF) assay was performed. […] By intracellular esterases and oxidation, the nonfluorescent H2DCFDA is converted to the highly fluorescent 2′,7′-dichlorofluorescein (DCF). The nonfluorescent fluorescin (2′,7′-dichlorofluorescein diacetate (DCFH-DA) pass the cell membranes. In the cytoplasm, it is splitted by intracellular esterases and cannot leave out of the cell in this form. The oxidation by intracellularly existing ROS (reactive oxygen species) modifies the molecule so that will become DCF and emit fluorescence.
Determination of the anti-oxidative capacity is performed in 96-well microplates from Nunc (Wiesbaden, Germany) and with the microplate reader “Spark” from Tecan (Crailsheim, Germany).
Cells are seeded in a black 96 well microplate with transparent bottom and incubated at 37° C. After 24 hours the supernatant is decanted and fresh media with 0.1% FBS is succeded. Further 24 hours later the supernatant is decanted again and the test samples are added and incubated for 24 hours. Varying concentrations of MDI 101 in the cell culture medium were tested. As a positive control Trolox is always co-tested. Then the DCF Assay is performed and the fluorescence is measured from bottom of well at EX/EM 485/528 nm. The antioxidative capacity is expressed in percent, which can be determined by rule of proportion in combination with the control.

cells (proliferation) = assay: CyQUANT Direct Cell Proliferation Assay; format: cell-based; details: 0.00005 mM; 72 hours; media with 6% FBS
Procedure: To evaluate the pro-proliferative activity of MDI 101, the CyQUANT® Direct Cell Proliferation Assay was performed. The CyQUANT® Direct assay is based on a cell-permeant DNA-binding dye in combination with a background suppression reagent. As DNA content is highly regulated, cell number estimates are very accurate. The masking dye blocks staining of dead cells and cells with compromised cell membranes, causing only staining of healthy cells. Therefore, the CyQUANT® Direct assay measures proliferation as well as cytotoxicity. The fluorescence can be measured spectrophotometrically from bottom of well with standard green filter sets or wavelengths (EX/EM 508/527 nm).
The proliferation capacity is performed in black 96-well microplates from Corning (Germany) and with the microplate reader “Spark” from Tecan (Crailsheim, Germany).
Cells are seeded in a black 96 well microplate with transparent bottom and incubated at 37° C. and 5% CO2. After 24 hours the supernatant is decanted and the samples are added in fresh media with 6% FBS. As a positive control KGF is always co-tested. […] Then the CyQUANT® Direct assay is performed and the fluorescence is measured from bottom of well at EX/EM 508/527 nm.
The proliferation probability is expressed in percent, which can be determined by rule of proportion in combination with the control.

[5] = tested on: three-dimensional (3D) epidermis model (keratinocytes); assay: 3D epidermis model, thickness of the epidermis (H&E and Ki67 stained sections); format: cell-based; details: 0.01 μM; for Thickness (whole) / Thickness (without stratum corneum): epidermis in stained sections
Procedure: With such 3D assays significant information is obtained about the complex stratification and terminal differentiation process of keratinocytes in a multilayered epidermal tissue with barrier functionality.
Furthermore, paraffin sectioning and a H&E and Ki67 staining was performed. The thickness of the epidermis in the stained sections was measured and compared between MDI 101, all-trans Retinol, all in a concentration of 0.01 μM and the DMSO control (FIG. 1).

[6] = Solubility and recrystallization in o/w emulsions (microscopy, polarized light); format: physicochemical
Procedure: Two pre-blends, A1 and A2, both containing 2.5 w/w % of Hydroxypinacolone Retinoate (MDI 101) were produced according to the above recipe. Three o/w emulsions (A, B and C) according to the following recipe were prepared: Heat Phases A and C separately up to 80° C. Disperse Phase B in A. Add Phase C to AB and emulsify by using an Ultra Turrax Stirrer (3 min, 6000 rpm). Add Phase D and neutralize. Allow to cool by using a vane stirrer. The emulsions were equal, except for the addition of MDI 101. […] As the pre-blends contain 2.5 wt.-% MDI 101, the final concentration of MDI 101 in the emulsions A, B and C was 0.05 wt.-% in all emulsions.

Which IC20 at 48 h [1] does the source give for `CC1=C(/C=C/C(C)=C/C=C/C(C)=C/C(=O)OCC(=O)C(C)(C)C)C(C)(C)CCC1` [MDI 101, retinoic acid, 3,3-dimethyl-2-oxobutyl ester] here?
The IC20 at 48 h was 171 µM.

And the IC50 [2]?
The IC50 was 263 µM.

What about the Mean inhibition ([3]; 2 μM) of the same molecule?
Its Mean inhibition is 8.8%.

And the Mean inhibition ([3]; 25 μM)?
The Mean inhibition was 17.7%.

And the Mean inhibition ([3]; 50 μM)?
The Mean inhibition was 27.3%.

And the Mean inhibition ([3]; 250 μM)?
Its Mean inhibition is 83.3%.

What about the Mean inhibition ([3]; 500 μM) of the same molecule?
The Mean inhibition was 96.4%.

And the ROS mean value ([4]; 0.002 μM)?
Its ROS mean value is 75%.

And the ROS reduction ([4]; 0.002 μM)?
Its ROS reduction is 25%.

What about the ROS mean value ([4]; 0.02 μM) of the same molecule?
The ROS mean value was 23%.

And the ROS reduction ([4]; 0.02 μM)?
The ROS reduction was 77.5%.

And the “Anti-oxidative effect (in words)” value ([4]; concentrations which should have no cytotoxic effect)?
The value was “anti-oxidative effect”.

And the “Mean proliferation compared to control (100%)” value (cells (proliferation))?
The value was 125%.

What about the “Effect on the thickness of the epidermis (in words)” value ([5]; compared with all-trans Retinol in the same concentration) of the same molecule?
The value was “better than the effect of all-trans Retinol”.

What about the “Thickness (whole)” value [5] of the same molecule?
Its value is 157 μm.

And the “Thickness (without stratum corneum)” value [5]?
The value was 112.5 μm.

What about the “Solubility after pre-solving in diisopropyl adipate” value ([6]; pre-solved in diisopropyl adipate, recrystallization could be avoided) of the same molecule?
Its value is “strongly improved the solubility”.

What about the “Solubility in cosmetic or pharmaceutical compositions (e.g. emulsions)” value ([6]; sole powder) of the same molecule?
The value was “poor solubility”.

With `CC1=C(/C=C/C(C)=C/C=C/C(C)=C/CO)C(C)(C)CCC1` [All-trans Retinol, reference compound] as the molecule, how does the “Thickness (whole)” value [5] read?
The value was 150 μm.

And the “Thickness (without stratum corneum)” value [5]?
The value was 85 μm.
